Assay [1] deals with T1, glutathione-S-transferase (GST) tagged LXRbeta LBD (ligand binding domain) (Homo sapiens, UniProt P55055).
T1 construct: purchased Invitrogen pv4658
T1 sequence (P55055 222-460 limits assumed): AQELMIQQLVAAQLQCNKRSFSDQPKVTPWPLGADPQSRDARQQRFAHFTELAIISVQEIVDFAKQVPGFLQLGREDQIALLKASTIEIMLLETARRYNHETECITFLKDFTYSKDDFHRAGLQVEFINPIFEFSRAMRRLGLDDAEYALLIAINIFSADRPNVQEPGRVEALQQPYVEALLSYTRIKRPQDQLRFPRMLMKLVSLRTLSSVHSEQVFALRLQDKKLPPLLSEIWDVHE
The assay can be described thus: LanthaScreen TR-FRET Liver X Receptor Coactivator Assay, LXR beta. The class given is biochemical. As to conditions: for EC50: LXR beta IP, potency (Inflection Point), compound-induced co-activator recruitment, TR-FRET; for Emax: read-out: LXR beta actiivty at max dose, efficacy (% Emax) in relation to reference dual agonist T0901317; for LXR beta actiivty at max dose: efficacy (% Emax) in relation to reference dual agonist T0901317. The method, then: (§1) While running the LanthaScreen™ TR-FRET Liver X Receptor Coactivator Assay, LXR alpha-LBD or LXR beta-LBD was added to ligand test compounds followed by addition of a mixture of a fluorescein-labelled coactivator peptide and terbium-conjugated anti-GST antibody. After an incubation period at room temperature, TR-FRET (time-resolved fluorescence resonance energy transfer) was measured using a filter-based instrument capable of TR-FRET, e.g. PerkinElmer Envision.

Assay [2] concerns the target T2, glutathione-S-transferase (GST) tagged LXRalpha LBD (ligand binding domain) (Homo sapiens, UniProt Q13133).
T2 construct: purchased Invitrogen pv4655
T2 sequence (Q13133 209-447 limits assumed): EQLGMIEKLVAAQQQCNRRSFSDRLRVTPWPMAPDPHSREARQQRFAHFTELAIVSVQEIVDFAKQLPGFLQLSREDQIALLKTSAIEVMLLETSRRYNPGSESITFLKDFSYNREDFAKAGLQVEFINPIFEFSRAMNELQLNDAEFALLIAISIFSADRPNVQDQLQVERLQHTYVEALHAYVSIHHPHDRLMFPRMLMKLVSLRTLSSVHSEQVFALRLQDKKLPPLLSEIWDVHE
The assay can be described thus: biochemical. As to conditions: for LXR alpha IP / EC50: potency (Inflection Point), compound-induced co-activator recruitment, TR-FRET. As to the method:
as §1

[3] abbreviates: read-out: LXR alpha actiivty at max dose, efficacy (% Emax) in relation to reference dual agonist T0901317.
Setting [4] is: efficacy (% Emax) in relation to reference dual agonist T0901317.
Where [5] appears, read: efficacy (% Emax) in relation to reference dual agonist T0901317, read-out: LXR alpha actiivty at max dose.

The values that follow come from patent US11655216B2 (priority 2016, dated 2023).

Read-outs that look alike come from different tables or passages of the source.

As for `Cc1nc(OC2CCC3(CC2)CCN(C(=O)C(O)(c2cccc(OC4CC4)c2)C(F)(F)F)CC3)ccc1C(=O)N(C)C` (single isomer, unassigned) [Example 2-1, 6-(3-((R or S)-2-(3-cyclopropoxyphenyl)-3,3,3-trifluoro-2-hydroxypropanoyl)-3-azaspiro[5.5]undecan-9-yloxy)-N,N,2-trimethylnicotinamide], in assay [1], the EC50 came out at 140 nM and the Emax came out at 46%. Moreover, in assay [2], the “LXR alpha IP” value is “No IP”. Moreover, in assay [2] (setting [3]), the Emax is 0%.

Turning to `CN(C)C(=O)c1ccc(OCCCC2CCN(C(=O)[C@](O)(c3ccccc3)C(F)(F)F)CC2)nc1Cl` (single isomer, unassigned) [Example 3-20], the EC50 in assay [1] was 25 nM; in assay [2] (LXR alpha IP), 2290 nM. In addition, the Emax in assay [1] stood at 74%; in assay [2] (setting [3]), 28%.

As for `CN(C)CCCNC(=O)c1ccc(OCCCCC2CCN(C(=O)[C@](O)(c3ccccc3)C(F)(F)F)CC2)cc1Cl` (single isomer, unassigned) [Example 8-19, (R or S)-2-chloro-N-(3-(dimethylamino)propyl)-4-(4-(1-(3,3,3-trifluoro-2-hydroxy-2-phenylpropanoyl)piperidin-4-yl)butoxy) benzamide], the EC50 in assay [1] was 33 nM; in assay [2] (LXR alpha IP) it was 1240 nM. Besides, the Emax in assay [1] is 53%; in assay [2] (setting [3]) it was 36%.

On to `COc1cccc(C(O)(C(=O)N2CCC3(CCC(Oc4ccc(C(=O)N(C)C)c(Cl)n4)CC3)CC2)C(F)(F)F)c1` (single isomer, unassigned) [Example 1-2, 2-chloro-N,N-dimethyl-6-(3-((S or R)-3,3,3-trifluoro-2-hydroxy-2-(3-methoxyphenyl)propanoyl)-3-azaspiro[5.5]undecan-9-yloxy)nicotinamide], for which, in assay [1], the EC50 stood at 92 nM and the “LXR beta actiivty at max dose” value turned out to be 120%. This molecule also came in with an EC50 in assay [2] (LXR alpha IP) of 1880 nM. For the same molecule, the Emax in assay [2] (setting [3]) was found to be 35%.

On to `COc1cccc([C@](O)(C(=O)N2CCC(C[C@H]3C[C@@H](Oc4ccc(C(=O)N(C)C)c(Cl)c4)C3)CC2)C(F)F)c1` (single isomer, unassigned) [Example 37-7, 2-chloro-4-((1R,3s)-3-((1-((R or S)-3,3-difluoro-2-hydroxy-2-(3-methoxyphenyl)propanoyl)piperidin-4-yl)methyl)cyclobutoxy)-N,N-dimethylbenzamide], for which, in assay [1], the EC50 stood at 32 nM and the Emax is 95%. For the same molecule, in assay [2], the “LXR alpha IP” value is “No IP”. In assay [2] (setting [3]), the Emax is 4%.

Turning to `CC(CCCOc1ccc(C(=O)N(C)C)c(Cl)c1)C1CCN(C(=O)C(O)(c2ccccc2)C(F)(F)F)CC1` (single isomer, unassigned) [Example 26-3, 2-chloro-N,N-dimethyl-4-((S or R)-4-(1-((R or S)-3,3,3-trifluoro-2-hydroxy-2-phenylpropanoyl)piperidin-4-yl)pentyloxy)benzamide], the EC50 in assay [1] turned out to be 6 nM; in assay [2] (LXR alpha IP) it was 125 nM. Moreover, in assay [1], the “LXR beta actiivty at max dose” value was 77%. For the same molecule, in assay [2] (setting [4]), the “LXR alpha actiivty at max dose” value is 48%.

In assay [1], `COc1ccccc1[C@@](O)(C(=O)N1CCC2(CC1)C[C@H]2CCCOc1ccc(C(=O)N(C)C)c(Cl)c1)C(F)(F)F` (single isomer, unassigned) [Example 14-3, 2-chloro-N,N-dimethyl-4-(3-((R or S)-6-((R or S)-3,3,3-trifluoro-2-hydroxy-2-(2-methoxyphenyl)propanoyl)-6-azaspiro[2.5]octan-1-yl)propoxy)benzamide] showed an EC50 of 41 nM. The Emax was found to be 81% in assay [1] and 6% in assay [2] (setting [3]). Further, the “LXR alpha IP” value in assay [2] is given as “No IP”.

With `CN(C(=O)c1ccc(OCCCCC2CCN(C(=O)[C@](O)(c3ccccc3)C(F)(F)F)CC2)cc1Cl)C1CC1` (single isomer, unassigned) [Example 8-12, (R or S)-2-chloro-N-cyclopropyl-N-methyl-4-(4-(1-(3,3,3-trifluoro-2-hydroxy-2-phenylpropanoyl)piperidin-4-yl)butoxy) benzamide], the EC50 in assay [1] turned out to be 16 nM; in assay [2] (LXR alpha IP), 351 nM. Also, the Emax came to 64% in assay [1] and 7% in assay [2] (setting [3]).

In the case of `CN(C)C(=O)c1ccc(OCC[C@@H]2C[C@@H]2C2CCN(C(=O)c3c(F)cccc3F)CC2)cc1Cl` (single isomer, unassigned) [Example 10-2, 2-chloro-4-(2-((1S,2R or 1R, 2S)-2-(1-(2,6-difluorobenzoyl)piperidin-4-yl)cyclopropyl)ethoxy)-N,N-dimethylbenzamide], the EC50 in assay [1] came to 106 nM; in assay [2] (LXR alpha IP) it was 1510 nM. In addition, the Emax is 69% in assay [1] and 14% in assay [2] (setting [3]).

Turning to `CCOc1cccc([C@@](O)(C(=O)N2CCC(C[C@H]3C[C@@H](Oc4ccc(C(=O)N(C)C)c(Cl)c4)C3)CC2)C(F)(F)F)c1` (single isomer, unassigned) [Example 37-3, 2-chloro-4-((1R,3s)-3-((1-((R or S)-2-(3-ethoxyphenyl)-3,3,3-trifluoro-2-hydroxypropanoyl)piperidin-4-yl)methyl)cyclobutoxy)-N,N-dimethylbenzamide], in assay [1], the EC50 turned out to be 17 nM and the Emax turned out to be 124%. The “LXR alpha IP” value in assay [2] is reported as “No IP”. Further, the Emax in assay [2] (setting [3]) turned out to be 9%.

Regarding `CN(C)C(=O)c1ccc(OCCC2CC23CCN(C(=O)C(C)(C)c2ccsc2)CC3)cc1Cl` (single isomer, unassigned) [Example 12-7, (R or S)-2-chloro-N,N-dimethyl-4-(2-(6-(2-methyl-2-(thiophen-3-yl)propanoyl)-6-azaspiro[2.5]octan-1-yl)ethoxy)benzamide], the values for the EC50 in assay [1] and in assay [2] (LXR alpha IP) were 29 nM and 589 nM, respectively. Besides, the Emax in assay [1] came out at 64%; in assay [2] (setting [3]), 39%.

On to `COc1cccc(C(O)(C(=O)N2CCC(CCCCOc3ccc(C(=O)N(C)C)c(OC)c3)CC2)C(F)(F)F)c1` (single isomer, unassigned) [Example 5-1, (R or S)-2-methoxy-N,N-dimethyl-4-(4-(1-(3,3,3-trifluoro-2-hydroxy-2-(3-methoxyphenyl)propanoyl)piperidin-4-yl)butoxy)benzamide], for which, in assay [1], the EC50 was determined as 36 nM and the Emax was 66%. Also, the Emax in assay [2] (setting [5]) came out at 7%. Also, the “LXR alpha IP” value in assay [2] is on record as “No IP”.

`CN(C)C(=O)c1ccc(OC(F)(F)CCCC2CCN(C(=O)C(O)(c3ccccc3)C(F)(F)F)CC2)cc1Cl` (single isomer, unassigned) [Example 19-1, (R or S)-2-chloro-4-(1,1-difluoro-4-(1-(3,3,3-trifluoro-2-hydroxy-2-phenylpropanoyl)piperidin-4-yl)butoxy)-N,N-dimethylbenzamide]: the EC50 in assay [1] amounted to 86 nM; in assay [2] (read-out: LXR alpha IP), 1170 nM. Also, the Emax in assay [1] is 75%; in assay [2] (setting [5]) it was 23%.

For `COc1cccc(C(O)(C(=O)N2CCC3(CCC(Oc4ccc(C(=O)N(C)C)c(Cl)n4)CC3)CC2)C(F)(F)F)c1` (single isomer, unassigned) [Example 1-3, 2-chloro-N,N-dimethyl-6-(3-((R or S)-3,3,3-trifluoro-2-hydroxy-2-(3-methoxyphenyl)propanoyl)-3-azaspiro[5.5]undecan-9-yloxy)nicotinamide], the EC50 in assay [1] was found to be 75 nM; in assay [2] (LXR alpha IP), 1160 nM. Further, the “LXR beta actiivty at max dose” value in assay [1] came out at 84%. The “LXR alpha actiivty at max dose” value in assay [2] (setting [4]) worked out at 21%.

`CN(C)C(=O)c1ccc(OCCC2CC23CCN(C(=O)C2(c4cc(F)ccc4F)CCC2)CC3)cc1Cl` (single isomer, unassigned) [Example 12-11, (S or R)-2-chloro-4-(2-(6-(1-(2,5-difluorophenyl)cyclobutanecarbonyl)-6-azaspiro[2.5]octan-1-yl)ethoxy)-N,N-dimethylbenzamide]: the EC50 worked out at 12 nM in assay [1] and 447 nM in assay [2] (LXR alpha IP). Also, the results for the Emax in assay [1] and in assay [2] (setting [3]) were 87% and 24%, respectively.

As for `CC(CCCOc1ccc(C(=O)N(C)C)c(Cl)c1)C1CCN(C(=O)C(O)(c2ccccc2)C(F)(F)F)CC1` (single isomer, unassigned) [Example 26-2, 2-chloro-N,N-dimethyl-4-((R or S)-4-(1-((R or S)-3,3,3-trifluoro-2-hydroxy-2-phenylpropanoyl)piperidin-4-yl)pentyloxy)benzamide], the values for the EC50 in assay [1] and in assay [2] (LXR alpha IP) were 6 nM and 103 nM, respectively. The “LXR beta actiivty at max dose” value in assay [1] turned out to be 71%. The Emax in assay [2] (setting [3]) came out at 41%.
